Columns and labels:
[1] = system: PAK phosphorylation of Vimentin (Ser56); experiment: Western blot, PAK phosphorylation of Vimentin (Ser56) in thyroid cancer cells; assay type: cell-based, Human; conditions: 7.5 μM, 6 h, BCPAP, FTC133 and TPC1 cells (FIG. 3)
Description: (§1) Protein isolation and Western blot were performed as previously described. Ringel et al., Cancer research 61:6105-6111 (2001). 25 μg of total cell lysates were loaded into 4-12% SDS-PAGE, electrophoresed, and transferred to nitrocellulose membranes for immunoblotting. Primary antibodies against Akt (#9272), phospho-Akt (Thr308) (#2965), p44/42 MAPK (Erk1/2) (#9107), phospho-p44/42 MAPK (Erk1/2) (Thr202/Tyr204) (#4377) and GAPDH (#2118) were obtained from Cell Signaling Technology (Danvers, Mass., USA). Antibody against Vimentin (V6630) and phospho-Ser55 Vimentin were from Sigma-Aldrich, Inc. (St. Louis, Mo.) and MBL Co. (Nagoya, Japan), respectively. Antibodies against total and phosphorylated S6 were from Cell Signaling Technology®.
(§2) The ability of the compounds with in vitro anti-PAK1 activity was assessed for activity […] in thyroid cancer cells. In addition, because the compounds are based on the structure of a PDK1 inhibitor, PDK1 inhibitory activity was also assessed. Inhibitory activity in cells was estimated using Western blot with primary antibodies directed against kinase-specific phosphorylation sites; serine 56 of vimentin for PAK and threonine 308 of Akt for PDK1. BCPAP, TPC1, and FTC133 thyroid cancer cells were utilized. BCPAP and TPC1 are derived from PTC and have BRAF V600E and RET/PTC1 rearrangements, respectively. FTC133 is derived from a follicular thyroid cancer with an inactivating mutation of PTEN. Similar to the kinase screening assay, cells were treated with the six compounds or OSU-03012 at 7.5 μM concentration or with DMSO vehicle alone. The results were not entirely consistent across the three cell lines presumably related to mutation status or other factors. OSU-03012 inhibited both PDK1 and PAK-mediated phosphorylation of targets as predicted.
(§3) The dose-dependency of compounds 4 and 15 was next assessed (FIG. 4). […] Due to the important role that ERK activation plays in thyroid cancer, and its signaling activation by thyroid oncogenes, the effects of the compounds on ERK phosphorylation was also assessed.

[2] = system: BCPAP cells; experiment: MTT cell viability assay, BCPAP; assay type: cell-based, Human; conditions: Homo sapiens, BCPAP, 72-hours of exposure, 1% FBS, mean±standard deviation (n=3), read-out: IC50 for reducing viability of BCPAP cells versus DMSO control
Excerpt: (§4) Human thyroid cancer BCPAP, TPC1, and FTC133 cell lines were the generous gifts of Drs. Rebecca Schweppe and Bryan Haugen (University of Colorado Denver) (Schweppe et al., The Journal of clinical endocrinology and metabolism 83:4331-4341 (2008)) with permission from the following originating laboratories: BCPAP—Dr. Fabien, Centre Hospitalier Lyon-Sud, France (Fabien et al., Cancer 73:2206-2212 (1994)); TPC1—Dr. Sato, Kanazawa University, Japan (Tanaka et al., Virology 161:62-411 (1987)); and FTC133—Dr. Goretzki, University of Leipzig, Germany (Goretzki et al., Recent Results Cancer Res 118:48-63 (1990)). The obtained cell lines were confirmed for identity by DNA fingerprinting. BCPAP was grown in RPMI 1640 medium (Life Technologies Co., Carlsbad, Calif.) while FTC133 and TPC1 were grown in DMEM (Life Technologies Co.), both supplemented with 10% fetal bovine serum (FBS) and NEAA unless as noted for experiments.
(§5) The effect of OSU-03012 and its derivatives on cell viability was assessed by using the 3-(4,5-dimethylthiazol-2-yl)-2,5-diphenyl-2H-tetrazolium bromide (MTT) assay. Three replicates were performed in each individual experiment, and experiments were repeated at least three separate times. Cells were grown in 96-well plates for 24 hours and were exposed to various concentrations of drugs dissolved in DMSO (final concentration 0.1%) in RPMI 1640 or DMEM containing 1% FBS for 72 hours. 10 μL of 0.5 mg/ml MTT was added to each well and cells were incubated in CO2 at 37° C. for 2 hours. Supernatants were removed from the wells, the reduced MTT dye was solubilized in 100 μL of solution C (12 ml of 1N HCl in 300 mL of isopropanol), and absorbance at 570 nm was determined on a microplate reader.
(§6) We assessed the ability of the compounds to reduce cell viability in vitro by MTT assay after 72 hours of continuous exposure. Results are shown in Table 1 and are depicted as the IC50 vs. simultaneously performed DMSO control.
(§7) ^aThe reported IC50 values are concentrations at which BCPAP, FTC133 and TPC1 cell viability by MTT assays 50% of DMSO control after 72-hours of exposure. Data are presented as mean±standard deviation (n=3). PAK and PDK1 Selectivity In Vivo

[3] = system: FTC133 cells; experiment: MTT cell viability assay, FTC133; assay type: cell-based, Human; conditions: Homo sapiens, FTC-133, 72-hours of exposure, 1% FBS, mean±standard deviation (n=3), read-out: IC50 for reducing viability of FTC133 cells versus DMSO control
Excerpt: as §4, §5, §6, §7

[4] = system: TPC1 cells; experiment: MTT cell viability assay, TPC1; assay type: cell-based, Human; conditions: Homo sapiens, TPC1, 72-hours of exposure, 1% FBS, mean±standard deviation (n=3), read-out: IC50 for reducing viability of TPC1 cells versus DMSO control
Excerpt: as §4, §5, §6, §7

[5] = molecular target: T1, Recombinant active PAK 1 (Homo sapiens, UniProt Q13153); experiment: In vitro PAK1 kinase assay (MBP substrate, 32P-ATP); assay type: biochemical
T1 construct: purchased Calbiochem
Description: Recombinant active PAK 1 (Calbiochem) was incubated with selected derivatives or 0.1% DMSO in the presence or absence of MBP (Sigma) in a 1× kinase buffer (Cell Signaling). The addition of [γ-32P]-ATP (2.5 μCi/reaction) (Perkin Elmer) started the reaction, which was incubated at 30° C. for 30 minutes. The reaction was terminated by the addition of EDTA. Results were obtained after visualization of ^32P-labeled MBP after separation on 12% polyacrylamide gels and autoradiography. For the Lineweaver-Burk plot analysis, the ratio of radioactive ATP to nonradioactive ATP was not altered. The PAK1 kinase activities are the means of three independent experiments quantified using P81 phosphocellulose paper by a scintillation counter after three washes with 0.75% phosphoric acid.
Screening of OSU-03012 Derivatives to Identify PAK1 Inhibitors. The 17 derivatives along with OSU-03012, each at 7.5 μM, were screened for their ability to inhibit PAK1 activity by in vitro PAK1 kinase assay. The dose was chosen (above the IC50 of OSU-03012) to allow OSU-03012 to serve as a robust positive control. The PAK1 kinase assay was performed using recombinant active PAK1 with myelin basic protein as substrate in the presence of 2.5 μM ATP and 7.5 μM of respective inhibitors.
To further investigate these six compounds, dose-response studies on PAK1 activity were performed by using PAK1 kinase assay. […] We next questioned whether compounds 4 or 15 inhibited PAK1 in an ATP competitive manner as their parent compound OSU-03012.

[6] = system: PDK1 phosphorylation of Akt (Thr308); experiment: Western blot, PDK1 phosphorylation of Akt (Thr308) in thyroid cancer cells; assay type: cell-based, Human; conditions: 7.5 μM, 6 h, BCPAP, FTC133 and TPC1 cells (FIG. 3)
Description: as §1, §2, §3

[7] = molecular target: PAK (Homo sapiens, UniProt Q13153); conditions: Porchia et al., Mol Pharmacol 72:1124-1131 (2007); cited from earlier work
Chain of PAK (Q13153 whole entry): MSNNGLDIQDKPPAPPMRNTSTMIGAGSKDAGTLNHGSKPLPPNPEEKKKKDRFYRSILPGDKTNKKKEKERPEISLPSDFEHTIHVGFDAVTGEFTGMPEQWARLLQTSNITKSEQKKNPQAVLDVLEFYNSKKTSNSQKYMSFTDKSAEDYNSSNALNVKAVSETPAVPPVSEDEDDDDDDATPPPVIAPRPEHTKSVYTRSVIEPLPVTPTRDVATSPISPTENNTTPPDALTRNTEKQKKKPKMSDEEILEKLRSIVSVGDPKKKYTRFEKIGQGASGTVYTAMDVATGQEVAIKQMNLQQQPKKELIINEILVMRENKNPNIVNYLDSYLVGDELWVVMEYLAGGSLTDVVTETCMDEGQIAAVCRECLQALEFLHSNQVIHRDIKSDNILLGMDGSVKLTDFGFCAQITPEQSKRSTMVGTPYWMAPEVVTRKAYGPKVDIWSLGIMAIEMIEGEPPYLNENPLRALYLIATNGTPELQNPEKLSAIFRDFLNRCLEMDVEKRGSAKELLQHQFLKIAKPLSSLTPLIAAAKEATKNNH

T1 sequence (Q13153 whole entry): as above

Structure (SMILES): NCCC(=O)Nc1ccc(-n2nc(CO)cc2-c2ccc3ccc4ccccc4c3c2)cc1 [Compound 11, 3-Amino-N-(4-(3-(hydroxymethyl)-5-(phenanthren-3-yl)-1H-pyrazol-1-yl)phenyl)-propanamide]
- PAK phosphorylation of vimentin (Western blot) [1]: did not significantly alter PAK phosphorylation of vimentin
- IC50 [2]: 4.5 ± 1.04 µM
- IC50 [3]: 3.94 ± 2.29 µM
- IC50 [4]: 4.98 ± 1.94 µM
- Inhibition of PAK1 kinase activity in initial screen ([5]; 7.5 μM inhibitor, 2.5 μM ATP, myelin basic protein substrate (FIG. 2A)): inhibited PAK1 kinase activity
- Relative PAK1 inhibitory potency (comparison in words) ([5]; in vitro kinase assay, comparison between compounds / with OSU-03012): more potent
- PDK1 phosphorylation of Akt (Thr308) (Western blot) [6]: markedly inhibit PDK1 phosphorylation of Akt

Structure (SMILES): NCC(=O)Nc1ccc(-n2nc(C(F)(F)F)cc2-c2ccc3c(ccc4ccccc43)c2)cc1 [OSU-03012, reference compound]
- PAK phosphorylation of vimentin (Western blot) [1]: inhibited
- IC50 [2]: 2.93 ± 1.05 µM
- IC50 [3]: 2.93 ± 1.87 µM
- IC50 [4]: 2.8 ± 1.33 µM
- PAK inhibitory activity (previously reported) [7]: low micromolar concentrations
- IC50 ([5]; in vitro kinase assay, read-out: IC50 versus PAK, in vitro (bound implied by chosen test concentration)): < 7.5 µM
- PDK1 phosphorylation of Akt (Thr308) (Western blot) [6]: inhibited
